Assay results reported in patent US20250090699A1, “FAP TARGETING CYCLIC PEPTIDES AND CONJUGATES THEREOF” (Novartis AG, priority 2023, published 2025).
Structures can show the parent of a compound that is named as a salt. Starred links: 1 amine or outer side, 2 acyl side, 3 side chain; linkers in the order of their positions; H or OH if unused. Non-standard residues stand in square brackets, D forms with d. Residues, ends and D or L forms follow the SMILES beside them. *: point of attachment. F(4amPEG2NHNODAGA-Ga) = gallium complex of 2,2'-(7-(1-(4-((S)-2-amino-2-carboxyethyl)phenyl)-15-carboxy-3,12-dioxo-5,8-dioxa-2,11-diazapentadecan-15-yl)-1,4,7-triazonane-1,4-diyl)diacetic acid (Phe with 4-aminomethyl-PEG2-NODAGA-Ga), O=C([O-])CN1CCN(CC(=O)[O-])CCN(C(CCC(=O)NCCOCCOCC(=O)NCc2ccc(C[C@H](N[*:1])C(=O)[*:2])cc2)C(=O)[O-])CC1.[Ga+3]; F(4amDOTA-Lu) = lutetium complex of (S)-2,2',2''-(10-(2-((4-(2-amino-2-carboxyethyl)benzyl)amino)-2-oxoethyl)-1,4,7,10-tetraazacyclododecane-1,4,7-triyl)triacetic acid (Phe with 4-aminomethyl-DOTA-Lu), O=C([O-])CN1CCN(CC(=O)[O-])CCN(CC(=O)NCc2ccc(C[C@H](N[*:1])C(=O)[*:2])cc2)CCN(CC(=O)[O-])CC1.[Lu+3]; COpipzaa = 4-(carboxymethyl)piperazine-1-carbonyl, O=C(O)CN1CCN(C(=O)*)CC1; hS(Pr) = O-propyl-L-homoserine, CCCOCC[C@H](N[*:1])C(=O)[*:2]; Phe(4-CH2NH2) = NCc1ccc(C[C@H](N)C(=O)O)cc1; NMeF = CN[C@@H](Cc1ccccc1)C(=O)O; Ahp(2) = CCCCC[C@H](N)C(=O)O

How the values were obtained:
mouse FAP [1] = target: T1, mouse FAP (Mus musculus, UniProt P97321); test: Enzymatic FAP competition assay (Z-Gly-Pro-AMC fluorescence), mouse FAP; format: biochemical; settings: read-out: m. FAP, Enz., IC50
T1 construct: biotinylated His, Avi tag, mouse FAP (26-761, FAP-M82Q5); His; Avi tag (biotinylated); purchased AcroBiosystems FAP-M82Q5
T1 sequence (P97321 26-761): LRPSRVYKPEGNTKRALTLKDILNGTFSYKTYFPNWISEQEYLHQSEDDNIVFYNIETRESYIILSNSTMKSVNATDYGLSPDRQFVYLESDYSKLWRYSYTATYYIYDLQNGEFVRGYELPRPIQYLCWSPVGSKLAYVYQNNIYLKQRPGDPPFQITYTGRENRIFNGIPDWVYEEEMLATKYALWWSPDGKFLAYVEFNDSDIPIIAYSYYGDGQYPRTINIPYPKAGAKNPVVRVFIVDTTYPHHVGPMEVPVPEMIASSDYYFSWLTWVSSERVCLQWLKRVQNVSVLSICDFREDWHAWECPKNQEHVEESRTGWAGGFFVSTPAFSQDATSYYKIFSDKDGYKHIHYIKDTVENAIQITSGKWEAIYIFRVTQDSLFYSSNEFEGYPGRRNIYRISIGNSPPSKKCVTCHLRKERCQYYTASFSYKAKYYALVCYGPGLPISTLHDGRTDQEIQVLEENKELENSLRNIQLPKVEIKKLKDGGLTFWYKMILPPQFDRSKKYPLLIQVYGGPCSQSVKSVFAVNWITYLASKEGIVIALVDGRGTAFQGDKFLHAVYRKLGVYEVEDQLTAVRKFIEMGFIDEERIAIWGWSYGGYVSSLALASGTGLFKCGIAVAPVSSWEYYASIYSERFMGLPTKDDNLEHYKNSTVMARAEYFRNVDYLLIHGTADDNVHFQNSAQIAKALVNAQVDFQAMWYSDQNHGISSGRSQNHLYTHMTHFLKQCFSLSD
Method: (§1) Peptide potencies (IC50) to inhibit the FAP enzymatic activity were determined using a fluorescence-based assay towards the biotinylated His, Avi tag, human FAP (26-760, FAP-H82Q6) and the biotinylated His, Avi tag, mouse FAP (26-761, FAP-M82Q5). Standard assay conditions consisted of 20 μL total volume in white 384-well plates (Greiner, Ref. 784075), in 50 mM phosphate buffer pH 7.5 containing 150 mM NaCl, 0.05% Tween20 and 1% final DMSO. Tested peptides at 14 different concentrations up to 1 μM were added to 0.01 nM human or mouse FAP. The peptides were incubated for 24 hours together with the protein before adding the substrate 50 μM Z-Gly-Pro-AMC (I-1145 from Bachem). Samples were then incubated at 22-24° C. for 4 h before reading the fluorescence at excitation wavelength of 380 nm and emission wavelength of 460 nm using the Tecan Infinite® M1000 PRO. The high control (100% activity) was not containing any peptide, and an internal potent peptide was added at 10 μM concentration for the low control (100% inhibition). IC50 values were calculated by curve fitting using an in-house developed software (Novartis Helios software application) using the method described by Fomenko et al., 2006 (regression algorithms for nonlinear dose-response curve fitting). Following normalization of activity values for the wells to % inhibition (% inhibition=[(high control-sample)/(high control-low control)]x 100). IC50 fitting was carried out from the duplicated points.

human FAP = target: T2, human FAP (Homo sapiens, UniProt Q12884); test: Enzymatic FAP competition assay (Z-Gly-Pro-AMC fluorescence), human FAP; format: biochemical; settings: read-out: h. FAP, Enz., IC50
T2 construct: the biotinylated His, Avi tag, human FAP (26-760, FAP-H82Q6); His; Avi tag (biotinylated); purchased AcroBiosystems FAP-H82Q6
T2 sequence (Q12884 26-760): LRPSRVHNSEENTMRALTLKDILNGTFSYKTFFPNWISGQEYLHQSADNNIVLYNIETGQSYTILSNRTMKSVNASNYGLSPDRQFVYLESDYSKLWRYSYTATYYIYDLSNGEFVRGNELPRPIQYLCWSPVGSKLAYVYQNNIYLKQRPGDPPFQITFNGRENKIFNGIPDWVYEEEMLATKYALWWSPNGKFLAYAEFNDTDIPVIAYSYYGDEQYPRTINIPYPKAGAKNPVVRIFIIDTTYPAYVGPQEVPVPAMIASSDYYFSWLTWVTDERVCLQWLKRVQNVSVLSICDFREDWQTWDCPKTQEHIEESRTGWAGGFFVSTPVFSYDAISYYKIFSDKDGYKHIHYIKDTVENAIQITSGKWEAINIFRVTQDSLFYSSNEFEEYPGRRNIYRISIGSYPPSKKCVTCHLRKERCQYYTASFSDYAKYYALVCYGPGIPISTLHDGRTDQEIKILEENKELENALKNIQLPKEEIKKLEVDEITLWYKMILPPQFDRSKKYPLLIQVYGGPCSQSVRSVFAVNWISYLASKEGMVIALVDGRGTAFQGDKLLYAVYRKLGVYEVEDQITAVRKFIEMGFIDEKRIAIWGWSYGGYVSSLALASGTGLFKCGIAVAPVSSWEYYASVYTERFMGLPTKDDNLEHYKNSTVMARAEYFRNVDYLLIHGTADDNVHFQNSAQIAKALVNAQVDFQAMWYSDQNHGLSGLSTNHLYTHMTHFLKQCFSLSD
Method: as §1

mouse FAP [2] = target: T1, mouse FAP; test: Surface plasmon resonance (SPR) for peptide affinity, mouse FAP; format: binding
Method: Peptide affinities (KD) were determined by SPR using a Biacore™ 8K device (Cytiva) towards the following proteins: biotinylated His, Avi tag, human FAP (26-760, FAP-H82Q6), biotinylated His, Avi tag, mouse FAP (26-761, FAP-M82Q5), His tag, human DPP4 (34-766, DP4-H82E3), all purchased from AcroBiosystems and His tag, mouse DPP4 (29-760, 954-SE) from R&D Systems. The FAP proteins and their homologous were diluted to a concentration of 2 μg/mL into acetate buffer pH 5.5, then immobilized onto a CM5 sensorchip (Cytiva, BR-1005-30) to reach a response around 2000 R U. The running buffer HBS-EP+pH 7.6 (20× from Teknova CAT. No: H8022) contained 10 mM HEPES pH 7.6, 150 mM NaCl, 3 mM EDTA, 0.05% Tween20 and 2% DMSO. Experiments were carried out at 25° C. using a flow rate of 30 μL/min. Compounds were tested in single cycle kinetic mode at 8 different concentrations. Curve fitting was performed using the Biacore™ 8K evaluation software. The sensorgrams were fitted by applying a 1:1 binding model to calculate kinetic rate constants and equilibrium dissociation constants (KD).
For this assay, the setup had the same conditions (flow rate, running buffer, peptide dilution) as described above for the CM5 method. The oligo CAP reagent obtained in the CAPture Kit (Ref. 28920234) was 1/5 diluted into running buffer and used with a contact time of 300 s at a flow rate of 2 μL/min. The human and mouse FAP constructs described above were used (from AcroBiosystems or produced in house). The FAP proteins were diluted to a concentration of 2 μg/mL into acetate pH 5.5, 0.05% Tween20 and used with a contact time of 600 s at a flow rate of 10 μL/min. The peptides were tested with an association time of 280 s followed by a dissociation time of 3000 s at a flow rate of 30 μL/min. The regeneration was done using the regeneration solution (8 M guanidine-HCl, 1 M NaOH) as obtained with a contact time of 270 s at a flow rate of 10 μL/min. […] The compounds marked with an asterisk were tested against human and mouse DDP4.

IC50 (mouse FAP [1]) | IC50 (human FAP) | Kd (mouse FAP [2]) | Molecule
1.3 nM | 0.4 nM | 0.72 nM | CCCCC[C@@H]1NC(=O)[C@H](Cc2ccc(O)cc2)NC(=O)[C@H](Cc2ccccc2)N(C)C(=O)CNC(=O)[C@H](CCCCN)NC(=O)[C@H]2CCCN2C(=O)[C@H](CC(=O)O)NC(=O)[C@H](Cc2ccc(O)cc2)NC(=O)CNC(=O)[C@H](Cc2c[nH]c3ccccc23)NC1=O [Example A53, Lys-Gly-NMePhe-Tyr-Ahp-Trp-Gly-Tyr-Asp-D-Pro, TFA salt] (cyclo([Ahp(2)]WGYD[dP]KG[NMeF]Y))
0.019 nM | 0.006 nM | < 0.02 nM | Gly-Gly-NMePhe-F(4amPEG2NHNODAGA-Ga)-hS(Pr)-Trp-Gly-K(COpipzaa)-Asp-D-Pro (cyclo(GG[NMeF][F(4amPEG2NHNODAGA-Ga)][hS(Pr)]WGK(COpipzaa)D[dP]); also: Ga complex) [Example C40]
0.29 nM | 0.084 nM | 0.4 nM | Gly-Gly-NMePhe-F(4amDOTA-Lu)-Ahp-Trp-Gly-Tyr-Asp-D-Pro (cyclo(GG[NMeF][F(4amDOTA-Lu)][Ahp(2)]WGYD[dP]); also: Lu complex) [Example C16]
0.33 nM | 0.063 nM | 0.52 nM | CCCCC[C@@H]1NC(=O)[C@H](Cc2ccc(CNC(C)=O)cc2)NC(=O)[C@H](Cc2ccccc2)N(C)C(=O)CNC(=O)CNC(=O)[C@H]2CCCN2C(=O)[C@H](CC(=O)O)NC(=O)[C@H](Cc2ccc(O)cc2)NC(=O)CNC(=O)[C@H](Cc2c[nH]c3ccccc23)NC1=O [Example A28, Gly-Gly-NMePhe-F(4AmAc)-Ahp-Trp-Gly-Tyr-Asp-D-Pro] (cyclo(GG[NMeF][Phe(4-CH2NH2)](Ac)[Ahp(2)]WGYD[dP]))
